{"source": "patent US20050271736A1", "about": "“Pyrithione compound and microcapsule using the same” (Fuji Photo Film Co., Ltd., priority 2004, published 2005)", "assay": "Measurement of photo-decomposability of the compound in ethyl acetate solution (absorbance before/after UV exposure)", "assay_type": "physicochemical", "details": "5.0×10^−5 mol/L in ethyl acetate", "description": "The absorbance thereof was measured with an absorption photometer (Multichannel Detector PMA 11, trade name, manufactured by Hamamatsu Photonics K.K.). […] After this solution was exposed for 20 seconds by means of a fluorescent lamp of 23 watts having the central wavelength of light emission at 365 nm, which was placed at a distance of 45 mm, the absorbance thereof was measured in the same manner as the above.", "data": [{"compound": "OCCCCCCOc1cccn(OCCCCCCO)c1=S", "note": "[I-1]", "values": [{"measurement": "absorbance at 370 nm before exposure", "setting": "1-cm quartz cell, before exposure", "value": 0.64}, {"measurement": "absorbance at 370 nm after exposure", "setting": "exposed 20 seconds, 23 W fluorescent lamp, central wavelength 365 nm, distance 45 mm", "value": 0.15}]}]}
